In PubChem BioAssay AID2060483 (Molecular Pharmacology Branch, DTP, NCI, 2025):

Tested on: K24384-001-R-PDC complex spheroids, viability
Assay: Anticancer human tumor K24384-001-R-PDC patient-derived pancreatic adenocarcinoma cell line growth inhibition [GQUAD]
Details: for IC50: curve of first compound; for viability, T/C: stronger effect = lower value; active = viability on the fitted dose curve at most 10% of control; inactive = the rest
Method in brief: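 Viability of tumor cells grown as complex spheroids with endothelial and stromal cells, exposed to drug combinations. Top concentration at or near clinical Cmax (else 10 microM), diluted in half-log increments.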

[1] = second compound 0.0316 µM, first compound 0.000999 µM
[2] = second compound 0.0316 µM, first compound 0.00316 µM
[3] = second compound 0.0316 µM, first compound 0.00999 µM
[4] = second compound 0.0316 µM, first compound 0.0316 µM
[5] = second compound 0.0316 µM, first compound 0.0999 µM
[6] = second compound 0.0316 µM, first compound 0.316 µM
[7] = second compound 0.1 µM, first compound 0.000999 µM
[8] = second compound 0.1 µM, first compound 0.00316 µM
[9] = second compound 0.1 µM, first compound 0.00999 µM
[10] = second compound 0.1 µM, first compound 0.0316 µM
[11] = second compound 0.1 µM, first compound 0.0999 µM
[12] = second compound 0.1 µM, first compound 0.316 µM
[13] = second compound 0.316 µM, first compound 0.000999 µM
[14] = second compound 0.316 µM, first compound 0.00316 µM
[15] = second compound 0.316 µM, first compound 0.00999 µM
[16] = second compound 0.316 µM, first compound 0.0316 µM
[17] = second compound 0.316 µM, first compound 0.0999 µM
[18] = second compound 0.316 µM, first compound 0.316 µM
[19] = second compound 1 µM, first compound 0.000999 µM
[20] = second compound 1 µM, first compound 0.00316 µM
[21] = second compound 1 µM, first compound 0.00999 µM
[22] = second compound 1 µM, first compound 0.0316 µM
[23] = second compound 1 µM, first compound 0.0999 µM
[24] = second compound 1 µM, first compound 0.316 µM
[25] = second compound 3.16 µM, first compound 0.000999 µM
[26] = second compound 3.16 µM, first compound 0.00316 µM
[27] = second compound 3.16 µM, first compound 0.00999 µM
[28] = second compound 3.16 µM, first compound 0.0316 µM
[29] = second compound 3.16 µM, first compound 0.0999 µM
[30] = second compound 3.16 µM, first compound 0.316 µM
[31] = second compound 10 µM, first compound 0.000999 µM
[32] = second compound 10 µM, first compound 0.00316 µM
[33] = second compound 10 µM, first compound 0.00999 µM
[34] = second compound 10 µM, first compound 0.0316 µM
[35] = second compound 10 µM, first compound 0.0999 µM
[36] = second compound 10 µM, first compound 0.316 µM
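Also: spheroids exposed to compounds for seven days.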

CC[C@@]1(O)C(=O)OCc2c1cc1n(c2=O)Cc2cc3c(CN(C)C)c(O)ccc3nc2-1 + Cc1cnc(CNC(=O)c2c(=O)c3ccc(N4CCCN(C)CC4)nc3n3c2sc2ccccc23)cn1
< 0.999 nM: IC50 (second compound 1 µM) | IC50 (second compound 3.16 µM) | IC50 (second compound 10 µM)
inactive: viability, T/C [1] 96.3% | viability, T/C [2] 71.1% | viability, T/C [3] 105% | viability, T/C [4] 64.1% | viability, T/C [5] 58.5% | viability, T/C [6] 44.1% | viability, T/C [7] 64.1% | viability, T/C [8] 69% | viability, T/C [9] 64.8% | viability, T/C [10] 58% | viability, T/C [11] 56.5% | viability, T/C [12] 47.1% | viability, T/C [13] 56.1% | viability, T/C [14] 55.2% | viability, T/C [15] 47.8% | viability, T/C [16] 49.9% | viability, T/C [17] 60.3% | viability, T/C [18] 39.8% | viability, T/C [19] 40.7% | viability, T/C [20] 51.3% | viability, T/C [21] 36.5% | viability, T/C [22] 42.7% | viability, T/C [23] 46% | viability, T/C [24] 37.6% | viability, T/C [25] 34.8% | viability, T/C [26] 39.1% | viability, T/C [27] 34.3% | viability, T/C [28] 39.6% | viability, T/C [29] 40.5% | viability, T/C [30] 30% | viability, T/C [31] 34.1% | viability, T/C [32] 22.9% | viability, T/C [33] 36.3% | viability, T/C [34] 38.4% | viability, T/C [35] 21.2%
active: viability, T/C [36] 0.39%
137 nM: IC50 (second compound 0.316 µM)
214 nM: IC50 (second compound 0.1 µM)
> 316 nM: IC50 (second compound 0.0316 µM)

CCc1c2c(nc3ccc(O)cc13)-c1cc3c(c(=O)n1C2)COC(=O)[C@]3(O)CC + Cc1cnc(CNC(=O)c2c(=O)c3ccc(N4CCCN(C)CC4)nc3n3c2sc2ccccc23)cn1
inactive: viability, T/C [1] 73.2% | viability, T/C [2] 60.8% | viability, T/C [3] 53.2% | viability, T/C [4] 29.8% | viability, T/C [5] 31.9% | viability, T/C [6] 18% | viability, T/C [7] 50% | viability, T/C [8] 64.9% | viability, T/C [9] 45.7% | viability, T/C [10] 36.7% | viability, T/C [11] 29.3% | viability, T/C [12] 16.1% | viability, T/C [13] 41.4% | viability, T/C [14] 58.4% | viability, T/C [15] 38.2% | viability, T/C [16] 34.8% | viability, T/C [17] 19.9% | viability, T/C [18] 14% | viability, T/C [19] 38.8% | viability, T/C [20] 41.4% | viability, T/C [21] 31.3% | viability, T/C [22] 23.8% | viability, T/C [23] 18.4% | viability, T/C [25] 37.4% | viability, T/C [26] 43.7% | viability, T/C [27] 28.8% | viability, T/C [28] 20.1% | viability, T/C [31] 29.2% | viability, T/C [32] 14.6%
9.23 nM: IC50 (second compound 0.0316 µM)
active: viability, T/C [24] 6.84% | viability, T/C [29] 8.56% | viability, T/C [30] 0.57% | viability, T/C [33] 13.3% | viability, T/C [34] 0.4% | viability, T/C [35] 0.25% | viability, T/C [36] 0.2%
8.3 nM: IC50 (second compound 0.1 µM)
< 0.999 nM: IC50 (second compound 0.316 µM) | IC50 (second compound 1 µM) | IC50 (second compound 3.16 µM) | IC50 (second compound 10 µM)
